Measured values published in patent US20100240683A1, “COMBINATION THERAPY, COMPOSITION AND METHODS FOR THE TREATMENT OF CARDIOVASCULAR DISORDERS” (Syndromex Ltd., priority 2007, published 2010).
Entries after “also recorded” stand apart in the source; their conditions may differ. Where two headings read alike, the source gives them in different places.

How the values were obtained:
CYP2C9 = CYP2C9 (Homo sapiens, UniProt P11712); assay: Fluorimetric CYP inhibition assay, CYP2C9-MFC
CYP3A4 [1] = target: T1, CYP3A4 (Homo sapiens, UniProt P08684); assay: Fluorimetric CYP inhibition assay, CYP3A4 (substrates BFC, BQ, DBF)
CYP3A4 [2] = target: T1, CYP3A4
CYP2D6 = CYP2D6 (Homo sapiens, UniProt P10635); assay: Fluorimetric CYP inhibition assay, CYP2D6-AMMC
CYP2B6 [3] = target: T2, CYP2B6 (Homo sapiens, UniProt P20813); assay: Fluorimetric CYP inhibition assay, CYP2B6-EFC
T2 sequence (P20813 1-491): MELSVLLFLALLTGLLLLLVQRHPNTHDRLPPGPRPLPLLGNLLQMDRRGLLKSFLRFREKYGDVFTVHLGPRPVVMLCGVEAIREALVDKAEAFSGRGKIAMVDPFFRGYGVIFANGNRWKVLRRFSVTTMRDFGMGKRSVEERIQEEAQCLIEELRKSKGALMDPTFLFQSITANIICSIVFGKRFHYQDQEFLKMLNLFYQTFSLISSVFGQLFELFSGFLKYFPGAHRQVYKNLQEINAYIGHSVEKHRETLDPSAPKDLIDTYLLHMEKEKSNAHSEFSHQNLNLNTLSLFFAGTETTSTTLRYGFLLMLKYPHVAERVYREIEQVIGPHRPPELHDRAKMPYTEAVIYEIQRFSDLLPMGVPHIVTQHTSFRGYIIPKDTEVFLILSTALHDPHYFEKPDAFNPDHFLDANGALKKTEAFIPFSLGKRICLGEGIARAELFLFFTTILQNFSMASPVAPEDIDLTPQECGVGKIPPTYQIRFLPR

CYP2B6 [4] = target: T2, CYP2B6; assay: in vitro
CYP2C8 = target: T3, CYP2C8 (Homo sapiens, UniProt P10632); assay: biochemical
T3 sequence (P10632 1-490): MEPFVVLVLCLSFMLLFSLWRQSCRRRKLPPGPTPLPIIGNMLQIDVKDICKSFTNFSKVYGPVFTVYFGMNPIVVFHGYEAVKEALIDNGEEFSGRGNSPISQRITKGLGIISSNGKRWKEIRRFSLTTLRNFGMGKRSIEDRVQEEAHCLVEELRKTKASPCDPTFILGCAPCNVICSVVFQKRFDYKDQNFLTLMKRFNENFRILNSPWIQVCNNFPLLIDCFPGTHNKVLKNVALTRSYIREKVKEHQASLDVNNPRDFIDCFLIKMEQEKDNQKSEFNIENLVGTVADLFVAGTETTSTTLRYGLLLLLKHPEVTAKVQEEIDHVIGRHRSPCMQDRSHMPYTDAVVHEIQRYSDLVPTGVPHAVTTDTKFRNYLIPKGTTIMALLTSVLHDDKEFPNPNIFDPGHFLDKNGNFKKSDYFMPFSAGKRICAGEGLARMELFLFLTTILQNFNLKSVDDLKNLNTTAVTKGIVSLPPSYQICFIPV

Guinea pigs = assay: Hypolipidemic effect in Guinea pigs model (plasma TG, cholesterol, lipoproteins); type: in vivo, Guinea pig; details: for effect on plasma cholesterol / effect on plasma triglycerides (TG): gavage, days 21 and 22, result in words
Procedure: • Guinea pigs (400-500 g) were obtained from Harlan (Israel) or Harlan (Netherlands). Animals were treated by gavage with Medica 16αα, Medica 16ββ and Simvastatin as indicated in 1% CMC for the specified treatment periods. During treatment period the animals were weighed and observed daily.
Non-fasted guinea pigs were anesthetized with ketamine (75 mg/kg body weight) and xylazine (6 mg/kg body weight), followed by S.C. abdominal injections of 2% lignocaine. Anesthetized animals were bled into tubes containing EDTA. Plasma chylomicrons were removed by centrifugation (20 min, 30K rpm, TST 55.5 rotor). Plasma TG was assayed by Roche/Hitachi kit. Plasma cholesterol was assayed by Roche Diagnostic's kit.
Chylomicrons-free plasma was subjected to continuous KBr-gradient centrifugation (24 h, 40K rpm, SW41 rotor), followed by fractionating gradient tubes into 0.5 ml fractions. TG, cholesterol and protein of each fraction were measured as described above. […]
Guinea pigs were treated by gavage with M16αα, M16ββ or with Simvastatin, weighed and observed daily. Plasma triglycerides (TG) and cholesterol, as well as plasma lipoproteins and their composition were examined on days 21 and 22 (as specified in the following tables) of the experiments, as described in Experimental procedures. As clearly shown by Table 3 and FIG. 1, treatment with M16αα decreases plasma triglycerides (TG).

[5] = gavage 24 mg/kg/bw, 22 days, n = 10
[6] = gavage 10 mg/kgbw, 21 days, n = 12

T1 sequence (P08684 whole entry): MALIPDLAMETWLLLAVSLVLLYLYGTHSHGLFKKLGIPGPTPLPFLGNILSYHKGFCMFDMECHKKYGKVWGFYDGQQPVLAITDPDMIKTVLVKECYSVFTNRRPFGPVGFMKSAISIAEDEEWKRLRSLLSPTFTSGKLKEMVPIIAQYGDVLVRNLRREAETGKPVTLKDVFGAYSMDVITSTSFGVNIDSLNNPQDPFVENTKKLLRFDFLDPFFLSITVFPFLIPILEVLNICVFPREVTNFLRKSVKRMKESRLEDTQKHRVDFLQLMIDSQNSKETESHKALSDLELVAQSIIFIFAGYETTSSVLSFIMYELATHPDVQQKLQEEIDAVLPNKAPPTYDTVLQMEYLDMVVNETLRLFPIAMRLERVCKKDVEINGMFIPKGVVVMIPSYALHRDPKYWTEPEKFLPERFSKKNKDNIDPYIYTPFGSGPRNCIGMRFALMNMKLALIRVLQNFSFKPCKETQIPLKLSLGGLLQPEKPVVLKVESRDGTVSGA
Chain of CYP2C9 (P11712 whole entry): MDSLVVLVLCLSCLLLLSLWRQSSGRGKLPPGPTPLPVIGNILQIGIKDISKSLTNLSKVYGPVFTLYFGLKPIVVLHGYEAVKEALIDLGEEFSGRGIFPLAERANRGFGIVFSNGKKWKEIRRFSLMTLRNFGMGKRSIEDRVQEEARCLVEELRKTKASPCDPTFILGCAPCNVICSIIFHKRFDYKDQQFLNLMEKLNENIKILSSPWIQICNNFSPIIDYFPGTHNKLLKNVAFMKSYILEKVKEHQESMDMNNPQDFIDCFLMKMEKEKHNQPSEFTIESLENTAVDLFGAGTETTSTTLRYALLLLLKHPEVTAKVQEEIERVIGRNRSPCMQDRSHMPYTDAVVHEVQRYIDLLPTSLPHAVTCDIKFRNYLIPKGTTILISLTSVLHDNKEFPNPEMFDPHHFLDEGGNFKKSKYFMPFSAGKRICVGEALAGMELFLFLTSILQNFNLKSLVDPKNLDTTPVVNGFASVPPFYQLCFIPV
Chain of CYP2D6 (P10635 whole entry): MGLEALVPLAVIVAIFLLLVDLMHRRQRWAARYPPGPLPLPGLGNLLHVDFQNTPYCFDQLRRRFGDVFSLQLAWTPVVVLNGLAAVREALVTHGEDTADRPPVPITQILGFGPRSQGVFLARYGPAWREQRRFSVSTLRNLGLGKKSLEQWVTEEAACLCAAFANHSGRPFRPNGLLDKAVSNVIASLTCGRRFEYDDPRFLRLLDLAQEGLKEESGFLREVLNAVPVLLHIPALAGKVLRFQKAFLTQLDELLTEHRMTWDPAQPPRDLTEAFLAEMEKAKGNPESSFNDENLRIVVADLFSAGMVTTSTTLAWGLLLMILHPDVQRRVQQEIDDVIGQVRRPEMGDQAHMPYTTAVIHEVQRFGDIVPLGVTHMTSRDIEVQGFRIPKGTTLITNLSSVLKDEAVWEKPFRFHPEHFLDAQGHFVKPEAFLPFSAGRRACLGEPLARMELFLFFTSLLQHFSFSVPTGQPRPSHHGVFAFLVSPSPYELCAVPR

| Structure (SMILES) | IC50 (CYP2C9) [µM] | IC50 (CYP3A4 [1]) [µM] | IC50 (CYP2D6) [µM] | IC50 (CYP2B6 [3]) [µM] | inhibition at 0.05 μM (CYP2B6 [4]; % Inhibition (set 1)) [%] | inhibition at 0.41 μM (CYP2B6 [4]; % Inhibition (set 1)) [%] | inhibition at 1.23 μM (CYP2B6 [4]; % Inhibition (set 1)) [%] | inhibition at 3.7 μM (CYP2B6 [4]; % Inhibition (set 1)) [%] | inhibition at 11.11 μM (CYP2B6 [4]; % Inhibition (set 1)) [%] | inhibition at 33.33 μM (CYP2B6 [4]; % Inhibition (set 1)) [%] | inhibition at 100 μM (CYP2B6 [4]; % Inhibition (set 1)) [%] | inhibition at 0.05 μM (CYP2B6 [4]; % Inhibition (set 2)) [%] | inhibition at 0.41 μM (CYP2B6 [4]; % Inhibition (set 2)) [%] | inhibition at 1.23 μM (CYP2B6 [4]; % Inhibition (set 2)) [%] | inhibition at 3.7 μM (CYP2B6 [4]; % Inhibition (set 2)) [%] | inhibition at 11.11 μM (CYP2B6 [4]; % Inhibition (set 2)) [%] | inhibition at 33.33 μM (CYP2B6 [4]; % Inhibition (set 2)) [%] | inhibition at 100 μM (CYP2B6 [4]; % Inhibition (set 2)) [%] | IC50 (CYP2C8) [µM] | effect on plasma cholesterol (Guinea pigs) | further results |
| --- | --- | --- | --- | --- | --- | --- | --- | --- | --- | --- | --- | --- | --- | --- | --- | --- | --- | --- | --- | --- | --- |
| CC(C)(CCCCCCCCCCC(C)(C)CC(=O)O)CC(=O)O [M16ββ, 3,3,14,14-tetramethylhexadecane-1,16-dioic acid] | > 100 | > 100 | > 100 | > 100 | 1 | 1 | 4 | 0 | 5 | 7 | 20 | 0 | 0 | 4 | 0 | 6 | 7 | 19 | > 100 | small but significant decrease | % Inhibition (set 2) (CYP3A4 [2]; 1.23 μM): 12%; % Inhibition (set 2) (CYP3A4 [2]; 3.7 μM): 2%; Liver/body weight % (Guinea pigs; [5]): 5.8 ± 0.2%; Plasma cholesterol (Guinea pigs; [5]): 31 ± 2.2 mg %; Weight gain (Guinea pigs; [5]): 173 ± 8.5 g; effect on plasma triglycerides (TG) (Guinea pigs): clear decrease |
| CC(C)(CCCCCCCCCCCCC(C)(C)C(=O)O)C(=O)O [M16αα, 2,2,15,15-tetramethylhexadecane-1,16-dioic acid] | > 100 | > 100 | > 100 | > 100 | 0 | 7 | 4 | 29 | 8 | 17 | 27 | 2 | 0 | 3 | 2 | 8 | 12 | 28 | > 100 | pronounced decrease | % Inhibition (set 1) (CYP3A4 [2]; 0.05 μM): 5%; % Inhibition (set 2) (CYP3A4 [2]; 0.05 μM): 1%; % Inhibition (set 1) (CYP3A4 [2]; 3.7 μM): 1%; % Inhibition (set 1) (CYP3A4 [2]; 33.33 μM): 4%; Liver/body weight % (Guinea pigs; [6]): 6.3 ± 0.1%; Weight gain (Guinea pigs; [6]): 201 ± 8 g; effect on plasma triglycerides (TG) (Guinea pigs): reduces; also recorded: decreases; effect on LDL-cholesterol levels (Guinea pigs; lipoprotein profile, FIG. 2, result in words): reduces |
